Data reported in US20090117090A1, “INHIBITION OF GLYCOGEN SYNTHASE KINASE 3 BETA IN ARTERIAL REPAIR AND STENT RE-ENDOTHELIALIZATION” (OTTAWA HEART INSTITUTE RESEARCH CORPORATION, priority 2007, published 2009).
Read-outs that look alike come from different tables or passages of the source.

Tests used:
EPCs [1] = experiment: EPC culture and enumeration (AcLDL uptake / UEA-1 dual positive cells); format: cell-based, human
Description: EPCs were isolated and cultured as previously described (17). Briefly, peripheral blood mononuclear cells (PBMCs) were isolated by ficoll gradient centrifugation from either healthy young volunteers or patients with angiographically verified CAD. Blood was collected by venipuncture and anticoagulated with EDTA. 5×10^6 PBMCs were then washed and resuspended in EGM-2 media (Clonetics) and plated on fibronectin coated plates. Media were supplemented with either LiCl (Sigma), GSKI VIII (Calbiochem; Cat. No. 361549; AR-A014418:N-(4-Methoxybenzyl)-N′-(5-nitro-1,3-thiazol-2-yl)urea), or vehicle (DMSO) at the indicated concentrations.
GSK inhibitor VIII is a GSK-3β isoform specific inhibitor derived from a class of compounds shown to inhibit GSK-3 both in vitro (54) and in vivo (53). After 96 hours of culture, non-adherent cells were removed and the plates washed three times with buffered wash solution. Cells were then incubated for another 72 hours before being labeling, enumeration, or being used in various assays.
For the task of enumeration EPCs were arbitrarily defined as cells dually positive for AcLDL uptake and ulex europeus agglutinin I (UEAI) binding. […] Plates of cells were again washed, and incubated for a DAPI nuclear counterstain before a coverslip was applied to the well and double positive cells were counted in 6 random high power fields (×200 magnification). […]

GSK-3β = GSK-3β (Homo sapiens, UniProt P49841); conditions: cited from earlier work
EPCs [2] = experiment: In vitro prediction of maximal tolerated dose of GSKI in EPC culture; format: cell-based, human; conditions: multiples of IC50 concentration in EGM-2; 1× to 100× tested
Description: In accordance with another aspect of the present invention, local delivery of inhibitor at the site of arterial injury represents an alternative strategy for enhancing arterial repair and mitigating neointima formation. GSKI coated stents (GCSs) were manufactured for use in a rabbit carotid model of stent neointima formation as previously described (27). Prior to implanting these GCSs, in vitro experiments were performed in order to predict the maximal tolerated dose of GSKI we could deliver in vivo. EPCs were cultured in EGM-2 supplemented with 1×, 2×, 5×, 10×, 20×, 30×, 40×, 50×, and 100× concentrations of the GSKI. […] To manufacture the GCSs, bare metal stents were coated with muco-gel supplemented with DMSO (vehicle for GSKI) or muco-gel containing 20×GSKI as previously described (27). Once coated, stents were allowed to dry in a sterile environment and packaged aseptically prior to delivery. Stents were deployed in New Zealand white rabbit carotid arteries according to a previous protocol and the stent neointima was subjected to quantitative histomophometry 14 days post-stent deployment (22). […] Despite rapid re-endothelialization of GCSs, a neointima formed in both groups but was 50% smaller in area in GCSs vs. control stents. […]

α-integrin subunits 1-5 = experiment: Quantitative PCR of α-integrin subunits in EPCs; format: cell-based, human
EPCs [3] = experiment: EPC fibronectin adhesion assay; format: cell-based, human
Description: Day 7 EPCs were detached from their fibronectin coated plates by incubation with 0.5 mmol EDTA. Cells were pelleted, resuspended in EGM-2 and enumerated. Subsequently, 100,000 EPCs were plated in 24-well fibronectin coated plates and incubated for 30 minutes. After, the wells were washed three times with HBSS and the adherent cells labeled and six random high power fields enumerated. Blocking experiments were performed using a specific VLA-4 antibody (MAB169832, Chemicon) at a concentration of 10 ug/mL and allowing cells to incubate for 2 hours.

EPCs [4] = experiment: EPC cell survival assay; format: cell-based, human; conditions: both healthy controls and patients with CAD, n=6
Description: Day seven EPCs were used for all experiments unless otherwise indicated. For the cell survival assay, six high power fields were enumerated on day 7 for each individual. Subsequently, cells were washed and the media changed every four days after which cells were again enumerated. Data are expressed as a percentage of initial cells present on day 7. For apoptosis studies cells from patients and healthy controls were cultured for 7 days. Cells were then lifted and recoated at a density of 2×10^6 mature EPCs per well. The cells were then allowed to incubate for an additional four days prior to being lifted with EDTA supplementation of the media and gentle agitation. Cells were pelleted and resuspended in HBSS. Prior to analysis by flow cytometry, 10 μL of propidium iodide was added to the cell suspension. EPCs were identified by uptake of acLDL-alexa488 (Invitrogen) and UEA-1 FITC labeling in separate experiments. Uptake of propidium iodide identified apoptotic cells. A total of ten thousand events was analyzed and the data expressed as a percentage of total EPCs being apoptotic. All experiments were conducted on a Beckman Coulter Cytomics FC 500 cytometer.

EPCs [5] = experiment: EPC apoptosis by propidium iodide flow cytometry; format: cell-based, human; conditions: 2×GSKI; EPCs of healthy controls and CAD patients
VEGF = VEGF secretion by EPCs (ELISA); format: cell-based, human; conditions: 24 hours in VEGF free media
β-catenin = β-catenin nuclear levels by western blot of EPC nuclear extracts; format: cell-based, human; conditions: EPCs cultured in media supplemented with GSKI (2×) vs control media
Description: β-catenin nuclear levels were assayed by western blot of nuclear extracts from both control and treated EPCs. Briefly, nuclei were separated by differential centrifugation and total nuclear protein was extracted. Protein was then run on an acrylamide gel and transferred onto a PVDF membrane overnight. After transfer, the membrane was blocked for one hour in 5% skim milk powder in 0.1% Tween-20 in Tris buffered saline. This was then incubated for 48 hours with primary antibody of a monoclonal anti-phospho-β-catenin (Cell Signaling Technologies) diluted 1:1000 in 5% skim milk powder in TBS-T. After incubation the membrane was then washed 3 times for 5 minutes each with TBS-T. The membrane was then incubated in secondary antibody of goat anti rabbit IgG (H+ L) conjugated with horseradish peroxidase (1:5000 in TBS-T) for 24 hours. The membrane was washed and quantitated using ECL Plus (Amersham Biosciences).

Chain of GSK-3β (P49841 whole entry, species assumed): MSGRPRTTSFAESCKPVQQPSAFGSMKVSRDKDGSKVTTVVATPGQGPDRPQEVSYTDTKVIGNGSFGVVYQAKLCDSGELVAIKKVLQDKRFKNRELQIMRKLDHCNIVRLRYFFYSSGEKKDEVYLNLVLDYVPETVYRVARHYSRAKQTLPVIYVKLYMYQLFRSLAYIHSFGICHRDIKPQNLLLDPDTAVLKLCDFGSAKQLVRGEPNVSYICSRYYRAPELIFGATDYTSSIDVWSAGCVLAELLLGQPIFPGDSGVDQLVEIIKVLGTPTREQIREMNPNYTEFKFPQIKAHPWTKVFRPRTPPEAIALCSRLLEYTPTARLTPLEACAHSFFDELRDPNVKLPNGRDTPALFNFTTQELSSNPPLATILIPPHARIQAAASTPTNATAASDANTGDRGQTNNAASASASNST

SMILES | EPC yield (EPCs [1]; 7 days culture, EPCs from both healthy controls and CAD patients, GSKI at 104 nm and 208 nm) | doses in which LiCl inhibits GSK-3β (GSK-3β) | dose resulting in increased EPC death and attenuated function (EPCs [2]) | EPC yield (EPCs [1]) | mRNA levels of α-1, -2, -3 and -5 integrin subunits (α-integrin subunits 1-5; GSKI 1× and 2× vs control) | mRNA of α-4 integrin subunit (α-integrin subunits 1-5; both concentrations of the GSKI (1×, 2×)) | EPC adherence, healthy controls (EPCs [3]; EPCs from healthy controls, fibronectin, 30 minutes) | increase in EPC adherence, patients cells (EPCs [3]; EPCs from patients with CAD, fibronectin, 30 minutes) | number of adherent cells after 30 minutes (EPCs [3]; VLA4 blocking experiment, without antibody) | EPC survival (long term viability) (EPCs [4]) | percentage of apoptotic cells (EPCs [5]) | VEGF secretion by mature EPCs (VEGF) | nuclear b-catenin levels (β-catenin)
[Cl-].[Li+] [LiCl, lithium chloride] | increases | 10 to 20 mM |  |  |  |  |  |  |  |  |  |  | 
COc1ccc(CNC(=O)Nc2ncc([N+](=O)[O-])s2)cc1 [GSKI, N-(4-Methoxybenzyl)-N′-(5-nitro-1,3-thiazol-2-yl)urea] |  |  | ≥ 30 × | increase | No difference | upregulation | dose dependent increase | ~4 fold | increased | significantly improves long term viability | reduction | increase | increased levels
